Measured values as given in patent US6589452B2, “Photochemically controlled photonic crystal diffraction” (University of Pittsburgh, priority 2000, dated 2003).

What was measured:
Type in all cases: physicochemical
[1] = thermal relaxation in the dark (cis-trans azobenzene isomerization); details: azobenzene derivative in solution; 24° C.; monoexponential
Description: FIG. 3 is a graph showing the characteristic time for UV irradiation and thermal relaxation of the AZO-PCCA. The characteristic time for UV irradiation (trans-cis azobenzene isomerization), which was performed at 365 nm, 10 mW, is ˜50 seconds (curve 1 and 2). The response time of the PCCA diffraction shift could be reduced by increasing the actinic light power. In addition, the characteristic time for thermal relaxation (cis-trans azobenzene isomerization), which was performed by placing the AZO-PCCA in the dark, is ˜10 days (curve 3 and 4).
(§1) In addition, a shoulder arising from the nπ* transition is evident at long wavelength side of the ππ* peak. This peak, due to nπ* transition, at 434 nm becomes dominant when a photostationary state under UV irradiation is reached (mainly cis-azobenzene). The intensity of the nπ* peak increases as the intensity of the ππ* band decreases due to the conversion of trans isomer to cis under UV light (FIG. 1). This is a typical behavior of azobenzene-type molecules. The photochemical behavior of a water solution of the azobenzene derivative of the present invention was determined under UV irradiation (365 nm, 20 mW) and irradiation with visible light ([…], ˜50 mW). Under 488 nm irradiation, the trans-isomer is restored and the photostationary state under visible light is very close to the equilibrium state in dark. […]

[2] = photochemical behavior of a water solution of the azobenzene derivative under UV irradiation; details: UV 365 nm, 20 mW, monoexponential fit
Excerpt: as §1, with “dark. When the azobenzene derivative was exposed to 365 nm irradiation, kinetic data fitted well to monoexponential function with the characteristic time of ˜40 seconds. In addition, thermal relaxation in dark follows monoexponential function with characteristic time of about 10 days at 24° C. Furthermore, the photochemical behavior of the azobenzene derivative of the present invention when covalently attached to the functionalized PCCA of the present invention was close to that of the azobenzene derivative in solution.” for “dark.”

[3] = water solubility of the azobenzene derivative; details: compared with non-derivatized azobenzene
Excerpt: In addition, it retains similar photochemical properties as non-derivatized azobenzene.
In a particular embodiment of the invention, an azobenzene derivative, which is modified in order to increase its water solubility, is attached to the reactive PCCA through the reaction of the epoxide groups inside the hydrogel with primary amino groups on the azobenzene derivative. See Example 3. Hereinafter, the functionalized PCCA having azobenzene attached thereto is referred to as “AZO-PCCA”. […] For example, spiropyran may be attached to the gel by directly copolymerizing the spiropyran with the acrylamide. The photosensitive components of the present invention may be synthesized by methods well-known in the art.

For `NCc1ccc(N=Nc2ccc(OCC(O)CO)cc2)cc1` (stereo not drawn) [azobenzene derivative, 4-N-aminomethylbenzolazo-4-phenoxy glycerol ether], the “characteristic time of thermal relaxation in dark” value [1] was “about 10 days”, the “characteristic time, 365 nm irradiation (trans-cis)” value [2] was roughly 40 s and the water solubility [3] was “improved water solubility”.
